Reference: patent US20250152574A1 (BIOGEN MA INC., priority 2022, published 2025)

Molecular target: T1, EBP (Homo sapiens, UniProt Q15125)
T1 construct: HEK293T cells were utilized as the source of EBP enzyme; endogenous in cells; host or cells: HEK293T
Assay: EBP Functional Assay (EBP immunoaffinity LC-MS assay)
Assay type: biochemical
Conditions: HEK293T cells as source of EBP enzyme; substrate zymosterol-d5, 37° C. for 4 h; percent conversion to dehydrolathosterol-d5 by LC-APCI MRM MS
Summary of the method: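 HEK293T cells served as EBP source; enzyme preincubated 30 min with inhibitor dilutions, then zymosterol-d5 substrate added and incubated 4 h at 37° C. Sterols extracted and quantified by LC-APCI MRM MS; percent conversion to […] fit to 4-parameter logistic for IC50. Tasin-1 reference inhibitor.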

T1 sequence (Q15125 whole entry): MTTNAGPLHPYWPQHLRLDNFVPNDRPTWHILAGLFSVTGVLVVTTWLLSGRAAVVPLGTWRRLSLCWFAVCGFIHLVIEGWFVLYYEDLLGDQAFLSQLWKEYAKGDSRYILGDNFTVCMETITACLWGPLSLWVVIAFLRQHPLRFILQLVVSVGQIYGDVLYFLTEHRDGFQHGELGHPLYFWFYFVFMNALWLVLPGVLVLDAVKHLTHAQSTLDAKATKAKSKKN

Row | Compound | IC50
1 | COCCN(C)C1COC2(CCN(S(=O)(=O)c3cc(C)cnc3OC)CC2)C1 (centres unmarked) [Example 67, 8-((2-Methoxy-5-methylpyridin-3-yl)sulfonyl)-N-(2-methoxyethyl)-N-methyl-1-oxa-8-azaspiro[4.5]decan-3-amine] | 250 to 1500 nM
2 | O=S(=O)(c1ccc(OC(F)F)cc1)N1CCC2(CC1)CC(N1CC3(CCOC3)C1)CO2 (centres unmarked) [Example 69, 8-((4-(Difluoromethoxy)phenyl)sulfonyl)-3-(6-oxa-2-azaspiro[3.4]octan-2-yl)-1-oxa-8-azaspiro[4.5]decane] | 250 to 1500 nM
3 | O=S(=O)(c1ccc(OC(F)F)cc1)N1CCC2(CC1)CC(N1CCC3(CCOC3)C1)CO2 (centres unmarked) [Example 70, 8-((4-(Difluoromethoxy)phenyl)sulfonyl)-3-(2-oxa-7-azaspiro[4.4]nonan-7-yl)-1-oxa-8-azaspiro[4.5]decane] | 250 to 1500 nM
4 | Cc1cc(S(=O)(=O)N2CCC3(CCC(N4C[C@@H]5C[C@H]4CO5)C3)CC2)n(C)n1 (stereo partly drawn) [Example 87, (1S,4S)-5-(8-((1,3-dimethyl-1H-pyrazol-5-yl)sulfonyl)-8-azaspiro[4.5]decan-2-yl)-2-oxa-5-azabicyclo[2.2.1]heptane] | 250 to 1500 nM
5 | O=S(=O)(c1ccc(OC(F)F)cc1)N1CCC2(CCC(N3C[C@@H]4C[C@H]3CO4)C2)CC1 (stereo partly drawn) [Example 89, (1S,4S)-5-(8-((4-(difluoromethoxy)phenyl)sulfonyl)-8-azaspiro[4.5]decan-2-yl)-2-oxa-5-azabicyclo[2.2.1]heptane] | 100 to 250 nM
6 | COCCN(C)C1CC2(CCN(S(=O)(=O)c3cc(C)nn3C)CC2)C1 [Example 91, 7-((1,3-dimethyl-1H-pyrazol-5-yl)sulfonyl)-N-(2-methoxyethyl)-N-methyl-7-azaspiro[3.5]nonan-2-amine] | 250 to 1500 nM
7 | Cc1cc(S(=O)(=O)N2CCC3(CC2)CC(N2CC4(COC4)C2)C3)n(C)n1 [Example 92, 6-(7-((1,3-dimethyl-1H-pyrazol-5-yl)sulfonyl)-7-azaspiro[3.5]nonan-2-yl)-2-oxa-6-azaspiro[3.3]heptane] | 100 to 250 nM
8 | COc1ncc(C)cc1S(=O)(=O)N1CCC2(CC1)CC(N1CC3(COC3)C1)C2 [Example 93, 6-(7-((2-methoxy-5-methylpyridin-3-yl)sulfonyl)-7-azaspiro[3.5]nonan-2-yl)-2-oxa-6-azaspiro[3.3]heptane] | 100 to 250 nM
9 | N#Cc1cc(F)cc(S(=O)(=O)N2CCC3(CC2)CC(N2CC4(COC4)C2)C3)c1 [Example 96, 3-((2-(2-oxa-6-azaspiro[3.3]heptan-6-yl)-7-azaspiro[3.5]nonan-7-yl)sulfonyl)-5-fluorobenzonitrile] | 250 to 1500 nM
10 | N#Cc1cc(F)cc(S(=O)(=O)N2CCC3(CCC(N4C[C@H]5C[C@@H]4CO5)C3)CC2)c1 (stereo partly drawn) [Example 97, 3-((2-((1R,4R)-2-oxa-5-azabicyclo[2.2.1]heptan-5-yl)-8-azaspiro[4.5]decan-8-yl)sulfonyl)-5-fluorobenzonitrile] | 100 to 250 nM
11 | N#Cc1cc(F)cc(S(=O)(=O)N2CCC3(CC2)CC(NCC2CCOCC2)CO3)c1 (centres unmarked) [Example 98, 3-fluoro-5-((3-(((tetrahydro-2H-pyran-4-yl)methyl)amino)-1-oxa-8-azaspiro[4.5]decan-8-yl)sulfonyl)benzonitrile] | 250 to 1500 nM
12 | O=S(=O)(c1cc2cccnc2cc1F)N1CCC2(CCC(N3CC4(COC4)C3)C2)CC1 (centres unmarked) [Example 102, 6-(8-((7-fluoroquinolin-6-yl)sulfonyl)-8-azaspiro[4.5]decan-2-yl)-2-oxa-6-azaspiro[3.3]heptane] | 100 to 250 nM
13 | Cc1occc1S(=O)(=O)N1CCC2(CCC(N3CC4(COC4)C3)C2)CC1 (centres unmarked) [Example 105] | 250 to 1500 nM
14 | CCOc1ccc(S(=O)(=O)N2CCC3(CCC(N4CC5(COC5)C4)C3)CC2)cc1 (centres unmarked) [Example 108] | 250 to 1500 nM
15 | Cc1cc(S(=O)(=O)N2CCC3(CCC(N4CC5(COC5)C4)C3)CC2)cnc1C (centres unmarked) [Example 109] | 100 to 250 nM
16 | COc1ccc(S(=O)(=O)N2CCC3(CCC(N4CC5(COC5)C4)C3)CC2)cn1 (centres unmarked) [Example 110] | 100 to 250 nM
17 | CCn1ncc(S(=O)(=O)N2CCC3(CCC(N4CC5(COC5)C4)C3)CC2)n1 (centres unmarked) [Example 111] | 250 to 1500 nM
18 | O=S(=O)(c1ccc(OC(F)(F)F)cn1)N1CCC2(CCC(N3CC4(COC4)C3)C2)CC1 (centres unmarked) [Example 114] | 250 to 1500 nM
19 | COc1cc(S(=O)(=O)N2CCC3(CC2)CC(N2CC4(COC4)C2)CO3)c(F)cn1 (centres unmarked) [Example 115] | 250 to 1500 nM
20 | COCCNC1COC2(CCN(S(=O)(=O)c3ccc(C)cc3C)CC2)C1 (centres unmarked) [Example 116, 8-((2,4-dimethylphenyl)sulfonyl)-N-(2-methoxyethyl)-1-oxa-8-azaspiro[4.5]decan-3-amine] | 250 to 1500 nM
21 | COc1ncc(C)cc1S(=O)(=O)N1CCC2(CC1)CC(N1CC3(COC3)C1)CO2 (centres unmarked) [Example 117, 8-((2-methoxy-5-methylpyridin-3-yl)sulfonyl)-3-(2-oxa-6-azaspiro[3.3]heptan-6-yl)-1-oxa-8-azaspiro[4.5]decane] | 250 to 1500 nM
22 | N#Cc1ccc(S(=O)(=O)N2CCC3(CCC(N4CC5(COC5)C4)C3)CC2)c(Cl)c1 (centres unmarked) [Example 126, 4-((2-(2-oxa-6-azaspiro[3.3]heptan-6-yl)-8-azaspiro[4.5]decan-8-yl)sulfonyl)-3-chlorobenzonitrile] | 100 to 250 nM

Results, then the compound that gave them:

Row | IC50 | Compound
23 | 100 to 250 nM | Cc1cc(S(=O)(=O)N2CCC3(CCC(N4CCC(C)(O)CC4)C3)CC2)n(C)n1 (centres unmarked) [Example 84, 1-(8-((1,3-dimethyl-1H-pyrazol-5-yl)sulfonyl)-8-azaspiro[4.5]decan-2-yl)-4-methylpiperidin-4-ol]
24 | 100 to 250 nM | Cc1cc(S(=O)(=O)N2CCC3(CCC(N4C[C@H]5C[C@@H]4CO5)C3)CC2)n(C)n1 (stereo partly drawn) [Example 88, (1R,4R)-5-(8-((1,3-dimethyl-1H-pyrazol-5-yl)sulfonyl)-8-azaspiro[4.5]decan-2-yl)-2-oxa-5-azabicyclo[2.2.1]heptane]
25 | < 100 nM | Cc1nc(Cl)ccc1S(=O)(=O)N1CCC2(CC1)CC(N1C[C@H]3C[C@@H]1CO3)C2 [Example 94, (1R,4R)-5-(7-((6-chloro-2-methylpyridin-3-yl)sulfonyl)-7-azaspiro[3.5]nonan-2-yl)-2-oxa-5-azabicyclo[2.2.1]heptane]
26 | < 100 nM | Cc1nc(C(F)(F)F)ccc1S(=O)(=O)N1CCC2(CC1)CC(N1CC(O)C1)C2 [Example 95, 1-(7-((2-methyl-6-(trifluoromethyl)pyridin-3-yl)sulfonyl)-7-azaspiro[3.5]nonan-2-yl)azetidin-3-ol]
27 | < 100 nM | COc1ccc(S(=O)(=O)N2CCC3(CCC(N4CC(O)C4)C3)CC2)c(C)n1 (centres unmarked) [Example 99, 1-(8-((6-methoxy-2-methylpyridin-3-yl)sulfonyl)-8-azaspiro[4.5]decan-2-yl)azetidin-3-ol]
28 | < 100 nM | COCCN(C)C1CCC2(CCN(S(=O)(=O)c3ccc(OC)nc3C)CC2)C1 (centres unmarked) [Example 100, 8-((6-methoxy-2-methylpyridin-3-yl)sulfonyl)-N-(2-methoxyethyl)-N-methyl-8-azaspiro[4.5]decan-2-amine]
29 | < 100 nM | O=S(=O)(c1coc(C(F)(F)F)c1)N1CCC2(CCC(N3CC4(COC4)C3)C2)CC1 (centres unmarked) [Example 101, 6-(8-((5-(trifluoromethyl)furan-3-yl)sulfonyl)-8-azaspiro[4.5]decan-2-yl)-2-oxa-6-azaspiro[3.3]heptane]
30 | < 100 nM | O=S(=O)(c1cnc2ccccc2c1)N1CCC2(CCC(N3CC4(COC4)C3)C2)CC1 (centres unmarked) [Example 103]
31 | < 100 nM | N#Cc1cccc(S(=O)(=O)N2CCC3(CCC(N4CC5(COC5)C4)C3)CC2)c1F (centres unmarked) [Example 104]
32 | < 100 nM | COc1ncc(S(=O)(=O)N2CCC3(CCC(N4CC5(COC5)C4)C3)CC2)cc1Cl (centres unmarked) [Example 106]
33 | < 100 nM | O=S(=O)(c1ccc2c(c1)OCCO2)N1CCC2(CCC(N3CC4(COC4)C3)C2)CC1 (centres unmarked) [Example 107]
34 | < 100 nM | COc1cc(S(=O)(=O)N2CCC3(CCC(N4CC5(COC5)C4)C3)CC2)ccn1 (centres unmarked) [Example 112]
35 | < 100 nM | COc1cc(S(=O)(=O)N2CCC3(CCC(N4CC5(COC5)C4)C3)CC2)c(F)cn1 (centres unmarked) [Example 113]
36 | < 100 nM | Cn1nc(C2CC2)cc1S(=O)(=O)N1CCC2(CC1)CC(NC1CCOCC1)C2 [Example 120, 7-((3-cyclopropyl-1-methyl-1H-pyrazol-5-yl)sulfonyl)-N-(tetrahydro-2H-pyran-4-yl)-7-azaspiro[3.5]nonan-2-amine]
37 | < 100 nM | Cc1nc(OC(F)F)ccc1S(=O)(=O)N1CCC2(CC1)CC(N1CC3(COC3)C1)C2 [Example 121, 6-(7-((6-(difluoromethoxy)-2-methylpyridin-3-yl)sulfonyl)-7-azaspiro[3.5]nonan-2-yl)-2-oxa-6-azaspiro[3.3]heptane]
38 | < 100 nM | Cn1nc(C(F)F)cc1S(=O)(=O)N1CCC2(CC1)CC(N1CC3(COC3)C1)C2 [Example 122, 6-(7-((3-(difluoromethyl)-1-methyl-1H-pyrazol-5-yl)sulfonyl)-7-azaspiro[3.5]nonan-2-yl)-2-oxa-6-azaspiro[3.3]heptane]
39 | < 100 nM | O=S(=O)(c1cc(C(F)F)nn1C1CC1)N1CCC2(CC1)CC(N1CC3(COC3)C1)C2 [Example 123, 6-(7-((1-cyclopropyl-3-(difluoromethyl)-1H-pyrazol-5-yl)sulfonyl)-7-azaspiro[3.5]nonan-2-yl)-2-oxa-6-azaspiro[3.3]heptane]
40 | < 100 nM | COc1cc(S(=O)(=O)N2CCC3(CCC(N4CC5(COC5)C4)C3)CC2)n(C)n1 (centres unmarked) [Example 124, 6-(8-((3-methoxy-1-methyl-1H-pyrazol-5-yl)sulfonyl)-8-azaspiro[4.5]decan-2-yl)-2-oxa-6-azaspiro[3.3]heptane]
41 | < 100 nM | Cn1nc(C(F)F)cc1S(=O)(=O)N1CCC2(CCC(N3CC4(COC4)C3)C2)CC1 (centres unmarked) [Example 125, 6-(8-((3-(difluoromethyl)-1-methyl-1H-pyrazol-5-yl)sulfonyl)-8-azaspiro[4.5]decan-2-yl)-2-oxa-6-azaspiro[3.3]heptane]
